The source of these data is patent US20240327320A1, “NOVEL ROUTES OF CHEMICAL SYNTHESIS OF 20S(OH)D3, 20S,25(OH)2D3, 20S,23S(OH)2D3, AND 20S,23R(OH)2D3 AND THEIR MODIFICATION OF THE IMMUNE ACTIVITY OF PBMCS” (United State Government as represen ted by the Department …, priority 2023, published 2024).

SMILES strings stand for the structures.

The target in series [1] is T1, Human AhR (Homo sapiens, UniProt P35869).
T1 construct: purchased Indigo Biosciences
T1 sequence (P35869 11-848): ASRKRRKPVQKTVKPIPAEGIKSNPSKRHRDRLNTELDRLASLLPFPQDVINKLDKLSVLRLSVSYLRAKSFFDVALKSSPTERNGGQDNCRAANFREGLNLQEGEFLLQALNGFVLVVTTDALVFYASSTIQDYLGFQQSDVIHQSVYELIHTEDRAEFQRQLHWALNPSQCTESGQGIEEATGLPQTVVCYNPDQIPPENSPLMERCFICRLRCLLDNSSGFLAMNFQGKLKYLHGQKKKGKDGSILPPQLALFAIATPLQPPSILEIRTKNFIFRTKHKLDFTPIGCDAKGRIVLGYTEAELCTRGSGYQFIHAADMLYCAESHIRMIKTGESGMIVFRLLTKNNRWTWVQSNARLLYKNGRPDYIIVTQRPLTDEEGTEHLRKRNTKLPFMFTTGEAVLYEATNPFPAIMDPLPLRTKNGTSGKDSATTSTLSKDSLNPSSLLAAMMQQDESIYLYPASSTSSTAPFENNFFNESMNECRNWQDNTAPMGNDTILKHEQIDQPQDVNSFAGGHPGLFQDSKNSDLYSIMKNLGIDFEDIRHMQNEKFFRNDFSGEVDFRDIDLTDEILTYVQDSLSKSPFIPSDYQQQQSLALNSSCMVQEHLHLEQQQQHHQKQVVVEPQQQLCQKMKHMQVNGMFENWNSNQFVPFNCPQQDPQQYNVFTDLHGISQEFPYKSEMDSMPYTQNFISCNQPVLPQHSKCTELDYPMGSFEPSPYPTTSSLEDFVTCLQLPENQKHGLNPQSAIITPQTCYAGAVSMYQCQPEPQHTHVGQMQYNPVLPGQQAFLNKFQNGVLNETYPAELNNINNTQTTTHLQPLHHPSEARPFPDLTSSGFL
Description: Human AhR Reporter Assay System (luciferase). Format: cell-based. The settings on record: 23 h treatment. As for the experimental part:
The binding of chemically synthesized secosteroids to AhR was tested using the Human AhR Reporter Assay System (Indigo Biosciences, State College, PA, USA) following the manufacturer's protocol and as detailed previously (Slominski A T, et. al., (2018) Int J Mol Sci 19(10)). Briefly, the cells including the luciferase reporter gene linked to an AhR-responsive promoter were treated with the compounds for 23 h and the luminescence signal was measured using Cytation 5 (Biotek, Winooski, VT, USA) after treatment with the detection substrate provided in the kit system.
Background: In a reporter assay the amount or activity of a reporter protein is the signal.

In series [2] the target is T2, LXRβ (Homo sapiens, UniProt P55055).
T2 construct: purchased Thermo Fisger Scientific, Inc
T2 sequence (P55055 222-460 limits assumed): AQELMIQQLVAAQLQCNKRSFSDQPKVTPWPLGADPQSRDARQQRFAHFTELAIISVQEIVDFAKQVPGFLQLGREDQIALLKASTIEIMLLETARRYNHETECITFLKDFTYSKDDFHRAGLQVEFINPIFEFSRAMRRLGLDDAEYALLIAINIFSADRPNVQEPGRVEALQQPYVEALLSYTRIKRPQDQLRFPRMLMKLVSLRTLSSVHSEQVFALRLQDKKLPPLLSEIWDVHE
Description: LanthaScreen TR-FRET LXRβ coactivator assay. It counts as biochemical. The settings on record: TR-FRET ratio 520/495 nm, FIG. 8E-F. As for the experimental part: The bindings were performed using the LanthaScreen TR-FRET LXRa/0 Coactivator kit (Thermo Fisger Scientific, Inc., Waltham, MA) as described previously (Slominski A T, et. al., (2021) Sci Rep 11(1) 8002). Briefly, TR-FRET ratios were calculated by dividing the emission at 520 nm by that at 495 nm using Synergy neo2 (BioTek, Winooski, VT).
(In TR-FRET formats the signal depends on donor and acceptor labels being close together.)

Series [3] relates to Human epidermal (HaCaT) keratinocytes. Description: Proliferation, MTS assay, keratinocytes. It counts as cell-based. The settings on record: 24 h or 48 h, 0.1-100 nM, FIG. 6. On the procedure:
(§1) Human dermal fibroblasts isolated from the skin of black neonates (HDFn) and human epidermal (HaCaT) keratinocytes cultured as described previously (Slominski A, et. al., (2013) The Journal of Clinical Endocrinology and Metabolism 98(2) E298-303; Slominski A T, et. al., (2011) Am J Physiol Cell Physiol 300(3) C526-41) were used for the experiments. Briefly, HDFn were plated onto 96-well plates at a confluence of about 70% in their seventh passage. Both HDFn and HaCaT keratinocytes were treated with 20S(OH)D3, 20S,25(OH)2D3, 20S,23S(OH)2D3, 20S,23R(OH)2D3 or 1α,25(OH)2D3 (Sigma-Aldrich, St. Louis, MO, USA) dissolved in ethanol and diluted in DMEM containing charcoal-treated serum, as previously described (Janjetovic Z, et. al., (2021) Endocrinology 162(1); Chaiprasongsuk A, et. al., (2020) Free Radic Biol Med 155 87-98; Slominski A T, et. al., (2011) Am J Physiol Cell Physiol 300(3) (2011) C526-41). The vehicle control comprised 0.1% ethanol. Proliferation was estimated using MTS (Promega, Madison, WI) assay. The number of viable cells was measured in 6 replicates.
(§2) Referring to FIG. 6A-D, inhibition of cell proliferation by 20S(OH)D3, 20S,25(OH)2D3, 20S,23S(OH)2D3 and 20S,23R(OH)2D3 in comparison to 1α,25(OH)2D3 is represented. […] Data are means±SD (n=6) and were analyzed using Student's t-test with p<0.05 (*), p<0.01 (**) or p<0.001 (***).
In general terms: Tetrazolium assays rely on reduction of a dye to a coloured formazan, in cell work by metabolically active cells.

The test system of series [4] is Human dermal fibroblasts (HDFn). The series is described as follows: Proliferation, MTS assay, fibroblasts. It counts as cell-based. Conditions: 24 h or 48 h, 0.1-100 nM, FIG. 6. On the procedure: as §1, §2
The conditions of series [5]: literature, at the same doses; cited from earlier work.

As to `C=C1CC[C@H](O)C/C1=C/C=C1\CCC[C@@]2(C)[C@H]1CC[C@@H]2[C@@](C)(O)C[C@H](O)CC(C)C` [20S,23R(OH)2D3, (20S,23R)-20,23-Dihydroxyvitamin D3], the “activity on AhR” value in series [1] was “reverse agonist”. In addition, the “activity on LXRβ” value in series [2] is “less efficient in activation of LXRβ than 20S,23S(OH)2D3”.

In the case of `C=C1CC[C@H](O)C/C1=C/C=C1\CCC[C@@]2(C)[C@H]1CC[C@@H]2[C@@](C)(O)CCCC(C)(C)O` [20S,25(OH)2D3, (20S)-20,25-Dihydroxyvitamin D3], the “inhibition of keratinocyte proliferation” value in series [3] was “inhibits fibroblast and keratinocyte proliferation”. The “inhibition of fibroblast proliferation” value in series [4] was “inhibits fibroblast and keratinocyte proliferation”.

In the case of `C=C1CC[C@H](O)C/C1=C/C=C1\CCC[C@@]2(C)[C@H]1CC[C@@H]2[C@@](C)(O)C[C@@H](O)CC(C)C` [20S,23S(OH)2D3, (20S,23S)-20,23-Dihydroxyvitamin D3], the “activity on AhR” value in series [1] is “agonistic activity”. In series [2], the “activity on LXRβ” value is on record as “better affinity with LXRβ”. Also, the “calcemic activity / toxicity” value in series [5] is listed as “non-calcemic”.

As for `C=C1CC[C@H](O)C/C1=C/C=C1\CCC[C@@]2(C)[C@H]1CC[C@@H]2[C@@](C)(O)CCCC(C)C` [20S(OH)D3, (20S)-20-Hydroxyvitamin D3], in series [3], the “inhibition of keratinocyte proliferation” value is “inhibits fibroblast and keratinocyte proliferation”. In addition, the “inhibition of fibroblast proliferation” value in series [4] is “inhibits fibroblast and keratinocyte proliferation”. Besides, the “calcemic activity / toxicity” value in series [5] is on record as “non-calcemic”.
